For one assay, the target named is T1, PaMurF (Pseudomonas aeruginosa, UniProt Q9EY48).
T1 construct: gene murF; recombinant, overexpressed and purified as in Majce et al. 2013
T1 sequence (Q9EY48 1-458): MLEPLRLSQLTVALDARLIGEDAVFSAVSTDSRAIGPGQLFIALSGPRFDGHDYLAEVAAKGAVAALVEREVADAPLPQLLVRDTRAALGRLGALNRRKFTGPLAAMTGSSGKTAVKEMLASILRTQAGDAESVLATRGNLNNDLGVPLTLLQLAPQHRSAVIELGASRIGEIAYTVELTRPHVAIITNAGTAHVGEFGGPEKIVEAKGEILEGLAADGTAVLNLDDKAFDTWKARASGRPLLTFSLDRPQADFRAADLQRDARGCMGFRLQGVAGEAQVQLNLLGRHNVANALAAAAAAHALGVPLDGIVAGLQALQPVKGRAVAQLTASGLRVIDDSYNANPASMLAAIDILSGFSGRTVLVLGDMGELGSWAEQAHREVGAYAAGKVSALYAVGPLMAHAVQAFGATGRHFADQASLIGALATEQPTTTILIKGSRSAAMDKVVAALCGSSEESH
The experiment in a line: coupled ADP-release assay, tripeptide made in situ by MurE. It counts as biochemical. The note with it: with UDP-MurNAc-D,L-DAP tripeptide (made in situ by MurE) and ATP.

The target in assay [1] is T2, Streptococcus pneumoniae Pn16 MurE (Streptococcus pneumoniae, UniProt Q8CWQ5).
T2 construct: recombinant, overexpressed and purified as in Blewett et al. 2004
T2 sequence (Q8CWQ5 1-481): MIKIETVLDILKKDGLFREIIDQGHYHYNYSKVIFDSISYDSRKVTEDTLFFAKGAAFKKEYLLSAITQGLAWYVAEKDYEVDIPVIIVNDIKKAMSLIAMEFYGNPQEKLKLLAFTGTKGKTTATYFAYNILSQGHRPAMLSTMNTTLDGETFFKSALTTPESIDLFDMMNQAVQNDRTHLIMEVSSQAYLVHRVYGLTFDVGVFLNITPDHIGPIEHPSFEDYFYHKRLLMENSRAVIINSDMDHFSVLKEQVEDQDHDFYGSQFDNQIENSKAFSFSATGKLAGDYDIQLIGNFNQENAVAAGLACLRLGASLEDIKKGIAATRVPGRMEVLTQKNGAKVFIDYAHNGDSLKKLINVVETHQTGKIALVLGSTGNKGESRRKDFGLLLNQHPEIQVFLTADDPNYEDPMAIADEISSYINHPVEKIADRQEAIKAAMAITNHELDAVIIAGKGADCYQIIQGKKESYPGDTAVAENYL
The experiment in a line: coupled pyruvate kinase/lactate dehydrogenase ADP-release assay, A340. It counts as biochemical. The note with it: 150 µM L-Lys, 375 µM UDP-MurNAc-dipeptide, ATP; 37 °C.

Square brackets hold non-standard residues; d marks the D form. Peptide text beside a SMILES is read from it.

Take `C[C@@H](N)C(=O)N[C@H](C)C(=O)O` [D-Ala–D-Ala] (H-[dA]-[dA]-OH): the “coupled ADP-release assay, tripeptide made in situ by MurE” value on PaMurF is on record as “MurF ligase with D-Ala–D-Ala as the second substrate”.
In the case of `CC(=O)N[C@H]1[C@@H](OP(=O)(O)OP(=O)(O)OC[C@H]2O[C@@H](n3ccc(=O)[nH]c3=O)[C@H](O)[C@@H]2O)O[C@H](CO)[C@@H](O)[C@@H]1O[C@H](C)C(=O)N[C@@H](C)C(=O)N[C@H](CCC(=O)O)C(=O)O` [UDP-MurNAc-Ala-Glu, Uridine diphospho N-acetylmuramyl-L-alanyl-D-glutamate], the “coupled pyruvate kinase/lactate dehydrogenase ADP-release assay, A340” value in assay [1] was “lysylation of UDP-MurNAc-Ala-Glu was also assayed with the L-Lys-specific Streptococcus pneumoniae Pn16 MurE”.

These data come from PMC9434261, “Plant peptidoglycan precursor biosynthesis: Conservation between moss chloroplasts and Gram-negative bacteria” (Plant Physiology, 2022).
